# Experimental data from US7148338B2, “Nucleic acids encoding dipeptidyl peptidases” (The University of Sydney, priority 1999, dated 2006).
# Non-standard residues stand in square brackets, D forms with d. Residues, ends and D or L forms follow the SMILES beside them. *: point of attachment. Sta = CC(C)C[C@H](N)[C@@H](O)CC(=O)O; pNA = O=[N+]([O-])c1ccc(N*)cc1; Isovaleryl = CC(C)CC(=O)*; Cbz = O=C(OCc1ccccc1)*
# Legend:
# DPPIV [1] = target: T1, DPPIV (Homo sapiens, UniProt P27487); experiment: Inhibition of peptidase activity of purified DPPIV, substrate H-Gly-Pro-pNA; format: biochemical; parameters: His tag; made in house; host or cells: transfected COS-7 cells; solubilised with 1% Triton X-100; details: 1 mM H-Gly-Pro-pNA, pH 7.4
# T1 sequence (P27487 whole entry): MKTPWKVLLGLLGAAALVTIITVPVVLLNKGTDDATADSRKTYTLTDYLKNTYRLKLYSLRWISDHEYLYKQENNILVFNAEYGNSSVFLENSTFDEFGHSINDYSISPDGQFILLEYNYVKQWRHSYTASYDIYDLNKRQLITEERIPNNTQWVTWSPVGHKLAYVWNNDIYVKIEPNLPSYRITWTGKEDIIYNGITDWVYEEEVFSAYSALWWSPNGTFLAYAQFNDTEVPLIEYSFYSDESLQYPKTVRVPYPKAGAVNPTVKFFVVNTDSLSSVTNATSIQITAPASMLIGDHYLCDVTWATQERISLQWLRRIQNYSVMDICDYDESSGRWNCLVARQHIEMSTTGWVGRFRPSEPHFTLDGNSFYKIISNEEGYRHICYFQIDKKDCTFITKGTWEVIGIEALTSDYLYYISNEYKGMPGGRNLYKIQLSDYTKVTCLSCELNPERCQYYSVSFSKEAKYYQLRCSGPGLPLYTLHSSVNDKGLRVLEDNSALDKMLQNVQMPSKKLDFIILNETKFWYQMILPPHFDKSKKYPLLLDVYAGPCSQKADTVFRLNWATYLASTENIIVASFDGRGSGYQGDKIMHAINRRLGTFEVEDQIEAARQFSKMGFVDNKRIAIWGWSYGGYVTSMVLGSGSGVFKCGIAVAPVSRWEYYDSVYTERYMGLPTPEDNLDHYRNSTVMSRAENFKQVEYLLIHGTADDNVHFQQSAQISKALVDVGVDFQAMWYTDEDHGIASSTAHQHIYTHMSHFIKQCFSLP
# Protocol: (§1) Cells (1×10^7) expressing each protein were sonicated in native buffer (50 mM sodium phosphate, 300 mM NaCl), then treated with 700 U DNAse for 20 min at room temperature. DPPIV is expressed at the cell surface, so 1% Triton X-100 was used to solubilize DPPIV/V5/His. Insoluble material was removed by centrifugation. The supernatant was incubated with 1 mL Talon® Metal Affinity Resin (Clontech) following the manufacturer's instructions for a batch/gravity flow procedure. The resin was washed with 50 mM sodium phosphate, containing 300 mM NaCl and 5 mM imidazole, and proteins were eluted using the same buffer containing 150 mM imidazole. Enzyme activity was used to monitor eluted fractions.
# (§2) Enzyme assays were performed as described previously. Either clarified cell extract from 1×10^4 sonicated COS-7 cells or purified protein derived from 1×10^5 cells was incubated with substrate in 70 μL phosphate buffer, pH 7.4, for 30 min at 37° C., except where otherwise indicated. The specific DPPIV substrates, Gly-Pro-toluenesulfonate, H-Gly-Pro-p-nitroanilide (NA)/HCl (Sigma, St Louis, Mo., USA) and Gly-Pro-7-amino-4-trifluromethylcoumarin (Calbiochem, San Diego, Calif., USA) were tested. Other substrates tested were H-Ala-Pro-pNA/HCl, H-Arg-Pro-pNA acetate salt, H-Lys-Ala-pNA.2HCl, H-Asp-Pro-pNA, H-Ala-Ala-pNA/HCl, H-Ala-Ala-Pro-pNA/HCl, H-Ala-Ala-Phe-pNA, succinyl-Ala-Pro-pNA, H-Ala-Phe-Pro-pNA and Z-Ala-Pro-p-NA from Bachem (Switzerland). H-Ala-Pro-4-methoxyβNA/HCl, Z-Lys-Pro-4-methoxyβNAformate salt, H-Lys-Pro-4-methoxyβNA/HCl, Z-Ala-Pro-4-methoxyβNA, H-Gly-Pro-βNA and H-His-Ser-4-methoxyβNAacetate salt (Bachem) were tested for their ability to stain unfixed transfected cells. All inhibitors were (see Table 2) incubated with each purified enzyme in phosphate buffer, pH 7.4, for 15 min before the addition of substrate. After the addition of 1 mM H-Ala-Pro-pNA substrate for purified DPP8 and 1 mM H-Gly-Pro-pNA substrate for purified DPPIV, samples were incubated for 60 min at 37° C. All enzyme assays were performed in triplicate.
# DPP8 [2] = target: T2, DPP8 (Homo sapiens, UniProt Q6V1X1); experiment: Inhibition of peptidase activity of purified DPP8, substrate H-Ala-Pro-pNA; format: biochemical; parameters: the full length DPP8 cDNA of 3.1 kb was cloned into the Xba I site of pcDNA3.1A/V5/His expression vector; His tag (C); made in house; host or cells: COS-7 cells, stably transfected; details: for Residual activity (% of control): 1 mM H-Ala-Pro-pNA, pH 7.4
# T2 sequence (Q6V1X1 17-898 limits assumed): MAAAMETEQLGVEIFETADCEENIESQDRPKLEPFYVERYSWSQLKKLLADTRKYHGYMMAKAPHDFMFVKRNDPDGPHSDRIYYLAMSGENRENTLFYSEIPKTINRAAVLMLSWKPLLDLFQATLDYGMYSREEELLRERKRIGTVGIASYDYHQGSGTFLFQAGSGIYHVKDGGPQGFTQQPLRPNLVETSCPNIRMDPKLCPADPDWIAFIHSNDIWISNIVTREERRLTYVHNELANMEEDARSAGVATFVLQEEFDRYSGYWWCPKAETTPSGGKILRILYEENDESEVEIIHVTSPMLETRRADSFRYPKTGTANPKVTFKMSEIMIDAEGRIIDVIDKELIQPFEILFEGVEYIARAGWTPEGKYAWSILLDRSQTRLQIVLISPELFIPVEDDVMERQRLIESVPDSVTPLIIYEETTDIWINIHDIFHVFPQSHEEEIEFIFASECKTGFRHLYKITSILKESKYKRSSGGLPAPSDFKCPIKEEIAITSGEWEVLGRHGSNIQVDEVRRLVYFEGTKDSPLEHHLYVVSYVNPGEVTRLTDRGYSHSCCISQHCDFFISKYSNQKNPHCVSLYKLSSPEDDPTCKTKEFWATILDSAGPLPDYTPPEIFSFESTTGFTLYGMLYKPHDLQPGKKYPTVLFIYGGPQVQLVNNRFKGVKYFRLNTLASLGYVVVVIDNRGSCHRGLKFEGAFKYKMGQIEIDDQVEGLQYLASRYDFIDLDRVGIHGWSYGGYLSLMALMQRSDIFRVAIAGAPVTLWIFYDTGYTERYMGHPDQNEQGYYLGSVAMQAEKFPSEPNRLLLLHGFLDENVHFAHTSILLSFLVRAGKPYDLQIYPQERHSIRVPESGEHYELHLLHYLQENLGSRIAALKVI
# Protocol: as §1, §2
# [3] = tested on: DPP8-transfected COS cells and CHO cells; experiment: Cytochemical staining of unfixed transfected cell monolayers by substrates; format: cell-based; details: data not shown
# Protocol: (§3) Monkey kidney fibroblast (COS-7) cells (American Type Culture Collection, CRL-1651) were grown and transfected as described previously. For making stable cell lines, Geneticin (G418; Gibco-BRL) was added to the medium, beginning 24 h after transfection. COS cell extracts were prepared by sonication followed by differential centrifugation and neither boiled nor reduced before SDS/PAGE (10% gel) and transfer to nitrocellulose, as described previously. The presence of DPP8 fused with the V5 epitope was detected using an anti-V5 mAb (Invitrogen). COS cell monolayers were fixed in cold ethanol before staining with anti-V5 mAb. Some monolayers were fixed in 4% paraformaldehyde and permeabilized with 0.1% Triton X-100 [35], then double-stained with wheat germ agglutinin to label Golgi apparatus and with goat anti-mouse IgG to label DPP8, conjugated to Alexa Fluor 488 and Alexa Fluor 594, respectively (Molecular Probes, Eugene, Oreg., USA). Flow cytometry and confocal scanning microscopy using a Leica TCS-NT confocal microscope have been described previously.
# Enzyme assays were performed as described previously. Either clarified cell extract from 1×10^4 sonicated COS-7 cells or purified protein derived from 1×10^5 cells was incubated with substrate in 70 μL phosphate buffer, pH 7.4, for 30 min at 37° C., except where otherwise indicated. […]
# DPP8/V5/His = target: T3, DPP8/V5/His (Homo sapiens, UniProt Q6V1X1); experiment: Substrate hydrolysis by purified recombinant DPP8/V5/His; format: biochemical
# T3 construct: the full length DPP8 cDNA of 3.1 kb was cloned into the Xba I site of pcDNA3.1A/V5/His expression vector; His tag (C); made in house; host or cells: COS-7 cells, stably transfected
# T3 sequence (Q6V1X1 17-898 limits assumed): as above
# Protocol: as §1, §2
# DPP8 [4] = target: T2, DPP8; experiment: Substrate hydrolysis by extracts of DPP8-transfected COS-7 cells; format: biochemical; parameters: the full length DPP8 cDNA of 3.1 kb was cloned into the Xba I site of pcDNA3.1A/V5/His expression vector; expressed in transfected cells; host or cells: COS-7 (monkey kidney fibroblast) cells; clarified sonicated cell extract; details: above the levels of untransfected COS-7 cells; data not shown
# Protocol: as §3, §2
# DPPIV expressed in COS-7 cells with or without the V5/His tag were positive controls, and negative controls included vector-only transfected COS07 cells. […] The pH optimum of DPP8 enzyme activity was 7.4 (FIG. 5A), similar to the pH 7.8 optimum DPPIV enzyme activity. […]
# DPPIV [5] = target: T1, DPPIV; experiment: Enzyme kinetics (Km, Vmax) of purified DPPIV; format: biochemical; parameters: His tag; made in house; host or cells: transfected COS-7 cells; solubilised with 1% Triton X-100; details: for Km: Michaelis-Menten fit
# Protocol: (§4) FIG. 7. DPP8 enzyme activity. (A) pH-dependence of DPP8 enzyme activity. (B) DPP8 and DPPIV enzyme kinetics. Means +/− SD of absorbance change per minute, multiplied by 1000 are shown. Curve fitting assumed Michaelis-Menten kinetics.
# as §1, §2
# DPP8 [6] = target: T2, DPP8; experiment: Enzyme kinetics (Km, Vmax) of purified DPP8; format: biochemical; parameters: the full length DPP8 cDNA of 3.1 kb was cloned into the Xba I site of pcDNA3.1A/V5/His expression vector; His tag (C); made in house; host or cells: COS-7 cells, stably transfected; details: for Km: Michaelis-Menten fit
# Protocol: as §4, §1, §2
# DPPIV/V5/His = target: T4, DPPIV/V5/His (Homo sapiens, UniProt P27487); experiment: Substrate hydrolysis by purified recombinant DPPIV/V5/His; format: biochemical
# T4 construct: His tag; made in house; host or cells: transfected COS-7 cells; solubilised with 1% Triton X-100
# T4 sequence (P27487 whole entry): as the sequence (P27487 whole entry) above
# Protocol: as §1, §2
# DPPIV [7] = target: T1, DPPIV; details: reference [46]; cited from earlier work
compound,measurement,setting,value
O[C@H](CS)[C@H](O)CS (racemic) [Dithiothreitol],Residual activity (% of control),DPPIV [1]; inhibitor 2 mM,109 % of control
same,Residual activity (% of control),DPP8 [2]; inhibitor 2 mM,108 % of control
"COc1cc(NC(=O)[C@@H]2CCCN2C(=O)[C@H](C)N)cc2ccccc12.Cl [Ala-Pro-4MβNA/HCl, H-Ala-Pro-4-methoxyβNA/HCl]",Staining of DPP8-transfected cells by substrate,[3],stained
Cl.N=C(N)c1ccccc1 [Benzamidine/HCl],Residual activity (% of control),DPPIV [1]; inhibitor 10 mM,89 % of control
same,Residual activity (% of control),DPP8 [2]; inhibitor 10 mM,82 % of control
C[C@H](N)C(=O)N[C@@H](C)C(=O)N[C@@H](Cc1ccccc1)C(=O)Nc1ccc([N+](=O)[O-])cc1 [H-Ala-Ala-Phe-pNA] (H-Ala-Ala-Phe-pNA),Hydrolysis (cleavage) of substrate by purified recombinant DPP8,DPP8/V5/His,neither
C[C@H](N)C(=O)N[C@@H](C)C(=O)N1CCC[C@H]1C(=O)Nc1ccc([N+](=O)[O-])cc1.Cl [H-Ala-Ala-Pro-pNA] (H-Ala-Ala-Pro-pNA),Hydrolysis of substrate by extracts of DPP8-transfected COS-7 cells,DPP8 [4],exhibited tripeptidyl peptidase activity
C[C@H](N)C(=O)N[C@@H](Cc1ccccc1)C(=O)N1CCC[C@H]1C(=O)Nc1ccc([N+](=O)[O-])cc1 [H-Ala-Phe-Pro-pNA] (H-Ala-Phe-Pro-pNA),Hydrolysis (cleavage) of substrate by purified recombinant DPP8,DPP8/V5/His,neither
C[C@H](N)C(=O)N1CCC[C@H]1C(=O)Nc1ccc([N+](=O)[O-])cc1 [H-Ala-Pro-pNA] (H-Ala-Pro-pNA),Hydrolysis of substrate by extracts of DPP8-transfected COS-7 cells,DPP8 [4],hydrolyzed
same,Vmax,DPPIV [5],9.6 ± 1.0 ΔA min^−1 × 1000
same,Km,DPPIV [5],374 ± 134 µM
same,Vmax,DPP8 [6],12.4 ± 0.9 ΔA min^−1 × 1000
same,Km,DPP8 [6],991 ± 171 µM
same,Hydrolysis of substrate by purified recombinant DPPIV,DPPIV/V5/His,hydrolyzed
same,Hydrolysis (cleavage) of substrate by purified recombinant DPP8,DPP8/V5/His,hydrolyzed
NC(N)=NCCC[C@H](N)C(=O)N1CCC[C@H]1C(=O)Nc1ccc([N+](=O)[O-])cc1 [H-Arg-Pro-pNA] (H-Arg-Pro-pNA),Hydrolysis of substrate by extracts of DPP8-transfected COS-7 cells,DPP8 [4],hydrolyzed
same,Hydrolysis of substrate by purified recombinant DPPIV,DPPIV/V5/His,hydrolyzed
same,Hydrolysis (cleavage) of substrate by purified recombinant DPP8,DPP8/V5/His,hydrolyzed
"NCC(=O)N1CCC[C@H]1C(=O)Nc1ccc([N+](=O)[O-])cc1 [H-Gly-Pro-pNA, H-Gly-Pro-p-nitroanilide] (H-Gly-Pro-pNA)",Vmax,DPPIV [5],7.2 ± 0.49 ΔA min^−1 × 1000
same,Km,DPPIV [5],347 ± 88 µM
same,Vmax,DPP8 [6],3.5 ± 0.14 ΔA min^−1 × 1000
same,Km,DPP8 [6],467 ± 64 µM
same,Hydrolysis of substrate by purified recombinant DPPIV,DPPIV/V5/His,hydrolyzed
same,Hydrolysis (cleavage) of substrate by purified recombinant DPP8,DPP8/V5/His,hydrolyzed
NC(=O)CI [Iodoacetamide],Residual activity (% of control),DPPIV [1]; inhibitor 2 mM,115 % of control
same,Residual activity (% of control),DPP8 [2]; inhibitor 2 mM,100 % of control
CC(=O)N[C@@H](CC(C)C)C(=O)N[C@@H](CC(C)C)C(=O)N[C@H](C=O)CCCNC(=N)N [Leupeptin],Residual activity (% of control),DPPIV [1]; inhibitor 0.1 mM,104 % of control
same,Residual activity (% of control),DPP8 [2]; inhibitor 0.1 mM,93 % of control
CC(C)CC(=O)N[C@H](C(=O)N[C@H](C(=O)N[C@@H](CC(C)C)[C@@H](O)CC(=O)N[C@@H](C)C(=O)N[C@@H](CC(C)C)[C@@H](O)CC(=O)O)C(C)C)C(C)C [Pepstatin] (Isovaleryl-VV[Sta]A[Sta]-OH),Residual activity (% of control),DPPIV [1]; inhibitor 2 μg mL^−1,110 % of control
same,Residual activity (% of control),DPP8 [2]; inhibitor 2 μg mL^−1,107 % of control
C[C@H](NC(=O)OCc1ccccc1)C(=O)N1CCC[C@H]1C(=O)Nc1ccc([N+](=O)[O-])cc1 [Z-Ala-Pro-pNA] (Cbz-Ala-Pro-pNA),Hydrolysis of substrate by extracts of DPP8-transfected COS-7 cells,DPP8 [4],endopeptidase activity
O=S(=O)([O-])[O-].[Zn+2] [Zinc sulphate],Inhibition of DPPIV enzyme activity (in words),DPPIV [7],completely inhibits
Ala-Pro-Gly (APG) [peptide that mimics DPP8 substrates],Residual activity (% of control),DPPIV [1]; inhibitor 10 mM,67 % of control
same,Residual activity (% of control),DPP8 [2]; inhibitor 10 mM,51 % of control
same,Inhibition of DPP8 enzyme activity (in words),DPP8 [2]; purified DPP8,probably competitively inhibited
Aprotinin,Residual activity (% of control),DPPIV [1]; inhibitor 4 μg mL^−1,81 % of control
same,Residual activity (% of control),DPP8 [2]; inhibitor 4 μg mL^−1,47 % of control
Gly-Gly-Gly (GGG) [peptide],Residual activity (% of control),DPPIV [1]; inhibitor 10 mM,106 % of control
same,Residual activity (% of control),DPP8 [2]; inhibitor 10 mM,99 % of control
